Laboratory results: US20240132431A1, “METHOD FOR ALKYLATING ACIDIC FUNCTIONAL GROUP” (Chugai Seiyaku Kabushiki Kaisha, priority 2021, published 2024)
Values belong to the compound of their own block, whether it stands above or below them.

Biological target: T1, Bcl-2 protein (Recombinant Human Bcl-2 Protein) (Homo sapiens, UniProt P10415)
T1 construct: purchased Novus NBP2-34889
Assay: Binding evaluation of mixture library compounds to Bcl-2 using AS-MS (affinity selection mass spectrometry)
Conditions: for ASMS ratio (%) n = 1: replicate n = 1; for ASMS ratio (%) n = 1 / ASMS ratio (%) n = 2: ASMS Ratio(%)=(A−C)/B×100; for ASMS ratio (%) n = 2: replicate n = 2
Outline: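 Pooled library of ~1200 compounds ([…] each, final) incubated with recombinant human Bcl-2 (20 μM final) in Tris-HCl pH 7.4, NaCl, Tween-20, DTT buffer, dark, 23° C., 1 h. Bound fraction recovered by SEC spin column, organic extraction, reversed-phase LC/MS. ASMS Ratio (%) = (A−C)/B×100 versus protein-free standard and SEC blank.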

[1] = AS-MS, mixture of 1200 compounds, Bcl-2
[2] = AS-MS on the mixture of 1200 library compounds

T1 sequence (P10415 whole entry): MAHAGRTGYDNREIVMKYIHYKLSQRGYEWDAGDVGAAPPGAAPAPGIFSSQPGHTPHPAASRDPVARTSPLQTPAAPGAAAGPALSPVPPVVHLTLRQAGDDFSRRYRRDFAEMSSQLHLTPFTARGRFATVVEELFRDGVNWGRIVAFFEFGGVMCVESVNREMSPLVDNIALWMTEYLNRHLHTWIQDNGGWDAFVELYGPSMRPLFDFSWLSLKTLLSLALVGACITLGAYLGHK

ASMS ratio (%) n = 1 [1]: 2.1%
ASMS ratio (%) n = 2 [1]: −2.7%
Compound: CCOc1cncc(-c2cc(CN3CCN(c4ccc(C(=O)NCC56CC7CC(CC(C7)C5)C6)nn4)CC3)cc(OC(C)C)c2)c1 [B1A084-01, N-(1-Adamantylmethyl)-6-[4-[[3-(5-ethoxypyridin-3-yl)-5-propan-2-yloxyphenyl]methyl]piperazin-1-yl]pyridazine-3-carboxamide]

ASMS ratio (%) n = 1 [1]: 0.5%
ASMS ratio (%) n = 2 [1]: 1.5%
Compound: CCCNC(=O)c1ccc(N2CCN(Cc3ccc(-c4cncc(OCC)c4)cc3CC)CC2)nn1 [B1M076-01, 6-[4-[[4-(5-Ethoxypyridin-3-yl)-2-ethylphenyl]methyl]piperazin-1-yl]-N-propylpyridazine-3-carboxamide]

ASMS ratio (%) n = 1 [2]: 3.5%
ASMS ratio (%) n = 2 [2]: −4.1%
Compound: CCOc1cccc(-c2cc(CN3CCN(c4ccc(C(=O)Nc5ccc(OC)cc5)cc4)CC3)cc(OC(F)(F)F)c2)c1 [B1O063-01, 4-[4-[[3-(3-Ethoxyphenyl)-5-(trifluoromethoxy)phenyl]methyl]piperazin-1-yl]-N-(4-methoxyphenyl)benzamide]

ASMS ratio (%) n = 1 [2]: 2.8%
ASMS ratio (%) n = 2 [2]: 0.4%
Compound: CCOc1cncc(-c2ccc(C(=O)N3CCN(c4ccc(C(=O)Nc5ccc(OC)cc5)nn4)CC3)cc2C)c1 [B1O004-01, 6-[4-[4-(5-Ethoxypyridin-3-yl)-3-methylbenzoyl]piperazin-1-yl]-N-(4-methoxyphenyl)pyridazine-3-carboxamide]

ASMS ratio (%) n = 1 (AS-MS, mixture library, Bcl-2): 0.0%
ASMS ratio (%) n = 2 (AS-MS, mixture library, Bcl-2): 0.0%
Compound: CCOc1cncc(-c2csc(C(=O)N3CCN(c4ccc(C(=O)NS(=O)(=O)CC56CC7CC(CC(C7)C5)C6)nn4)CC3)c2)c1 [B2A002-01, N-(1-Adamantylmethylsulfonyl)-6-[4-[4-(5-ethoxypyridin-3-yl)thiophene-2-carbonyl]piperazin-1-yl]pyridazine-3-carboxamide]

ASMS ratio (%) (n = 1): 0.0%
ASMS ratio (%) (n = 2): 4.8%
Compound: CCOc1cccc(C#Cc2cncc(C(=O)N3CCN(c4ccc(C(=O)NS(=O)(=O)c5ccc(NCCSc6ccccc6)c(C(F)(F)F)c5)cc4)CC3)c2)c1 [B2R031-01, 4-[4-[5-[2-(3-Ethoxyphenyl)ethynyl]pyridine-3-carbonyl]piperazin-1-yl]-N-[4-(2-phenylsulfanylethylamino)-3-(trifluoromethyl)phenyl]sulfonylbenzamide]

ASMS ratio (%) n = 1 [2]: 12.4%
ASMS ratio (%) n = 2 [2]: −0.3%
Compound: CCOc1cccc(-c2csc(C(=O)N3CCN(c4ccc(C(=O)Nc5ccc(OC)cc5)cc4)CC3)c2)c1 [B1O023-01, 4-[4-[4-(3-Ethoxyphenyl)thiophene-2-carbonyl]piperazin-1-yl]-N-(4-methoxyphenyl)benzamide]

ASMS ratio (%) n = 1 (AS-MS, mixture library, Bcl-2): 0.4%
ASMS ratio (%) n = 2 (AS-MS, mixture library, Bcl-2): −0.5%
Compound: CCOc1cccc(-c2ccccc2CN2CCN(c3ccc(C(=O)N(CC)CC)nn3)CC2)c1 [B4J071-01]

ASMS ratio (%) (n = 1): 0.0%
ASMS ratio (%) (n = 2): 0.0%
Compound: CCOc1cccc(C#Cc2cncc(C(=O)N3CCN(c4ccc(C(=O)NS(=O)(=O)CCC(F)(F)F)cc4)CC3)c2)c1 [B2N031-01, 4-[4-[5-[2-(3-Ethoxyphenyl)ethynyl]pyridine-3-carbonyl]piperazin-1-yl]-N-(3,3,3-trifluoropropylsulfonyl)benzamide]

ASMS ratio (%) n = 1 [2]: 3.2%
ASMS ratio (%) n = 2 [2]: −4.7%
Compound: CCOc1cccc(-c2ccccc2CN2CCN(c3ccc(C(=O)N(C)CC45CC6CC(CC(C6)C4)C5)nn3)CC2)c1 [B3A071-01, N-(1-Adamantylmethyl)-6-[4-[[2-(3-ethoxyphenyl)phenyl]methyl]piperazin-1-yl]-N-methylpyridazine-3-carboxamide]

More lines, now with the values behind:

Compound: CCOc1cncc(-c2ccc(CN3CCN(c4ccc(C(=O)NS(=O)(=O)c5ccc(NCCSc6ccccc6)c(C(F)(F)F)c5)nn4)CC3)c3ccccc23)c1 [B2R092-01, 6-[4-[[4-(5-Ethoxypyridin-3-yl)naphthalen-1-yl]methyl]piperazin-1-yl]-N-[4-(2-phenylsulfanylethylamino)-3-(trifluoromethyl)phenyl]sulfonylpyridazine-3-carboxamide]
ASMS ratio (%) (n = 1): 16.0%
ASMS ratio (%) (n = 2): −1.3%

Compound: CCOc1cncc(-c2ccc(CN3CCN(c4ccc(C(=O)NS(=O)(=O)CCC(F)(F)F)cc4)CC3)cc2C)c1 [B2N048-01, 4-[4-[[4-(5-Ethoxypyridin-3-yl)-3-methylphenyl]methyl]piperazin-1-yl]-N-(3,3,3-trifluoropropylsulfonyl)benzamide]
ASMS ratio (%) (n = 1): 0.0%
ASMS ratio (%) (n = 2): −0.7%

Compound: CCOc1cccc(-c2ccc(CN3CCN(c4ccc(C(=O)NS(=O)(=O)CC56CC7CC(CC(C7)C5)C6)cc4)CC3)cc2F)c1 [B2A051-01]
ASMS ratio (%) n = 1 (AS-MS, mixture library, Bcl-2): −0.3%
ASMS ratio (%) n = 2 (AS-MS, mixture library, Bcl-2): 3.6%

Compound: CCOc1cncc(-c2cnn(-c3cc(C(=O)N4CCN(c5ccc(C(=O)NCC67CC8CC(CC(C8)C6)C7)nn5)CC4)cc(C(F)(F)F)c3)c2)c1 [B1A022-01, N-(1-Adamantylmethyl)-6-[4-[3-[4-(5-ethoxypyridin-3-yl)pyrazol-1-yl]-5-(trifluoromethyl)benzoyl]piperazin-1-yl]pyridazine-3-carboxamide]
ASMS ratio (%) n = 1 [1]: 8.0%
ASMS ratio (%) n = 2 [1]: 7.7%

Compound: CCOc1cncc(-c2cc(CN3CCN(c4ccc(C(=O)N(C)CC56CC7CC(CC(C7)C5)C6)cc4)CC3)cc(OC(C)C)c2)c1 [B3A058-01, N-(1-Adamantylmethyl)-4-[4-[[3-(5-ethoxypyridin-3-yl)-5-propan-2-yloxyphenyl]methyl]piperazin-1-yl]-N-methylbenzamide]
ASMS ratio (%) n = 1 [2]: 5.9%
ASMS ratio (%) n = 2 [2]: −7.6%

Compound: CCOc1cccc(-c2cc(CN3CCN(c4ccc(C(=O)NS(=O)(=O)C(C)(C)C)nn4)CC3)cc(C(F)(F)F)c2)c1 [B2L087-01, N-tert-Butylsulfonyl-6-[4-[[3-(3-ethoxyphenyl)-5-(trifluoromethyl)phenyl]methyl]piperazin-1-yl]pyridazine-3-carboxamide]
ASMS ratio (%) (n = 1): 1.9%
ASMS ratio (%) (n = 2): −24.6%

Compound: CCOc1cccc(-c2ccc(CN3CCN(c4ccc(C(=O)Nc5ccc(OC)cc5)cc4)CC3)c(CC)c2)c1 [B1O049-01, 4-[4-[[4-(3-Ethoxyphenyl)-2-ethylphenyl]methyl]piperazin-1-yl]-N-(4-methoxyphenyl)benzamide]
ASMS ratio (%) n = 1 [2]: 6.1%
ASMS ratio (%) n = 2 [2]: 0.0%

Compound: CCOc1cccc(-c2csc(C(=O)N3CCN(c4ccc(C(=O)NCC(F)(F)F)nn4)CC3)c2)c1 [B1K001-01, 6-[4-[4-(3-Ethoxyphenyl)thiophene-2-carbonyl]piperazin-1-yl]-N-(2,2,2-trifluoroethyl)pyridazine-3-carboxamide]
ASMS ratio (%) n = 1 [1]: 0.0%
ASMS ratio (%) n = 2 [1]: 0.0%

Compound: CCOc1cccc(-c2ccc(CN3CCN(c4ccc(C(=O)NS(=O)(=O)CCC(F)(F)F)nn4)CC3)c(OC)c2)c1 [B2N079-01]
ASMS ratio (%) (n = 1): 0.0%
ASMS ratio (%) (n = 2): 0.0%

Compound: CCOc1cccc(-c2cc(C(=O)N3CCN(c4ccc(C(=O)NCC(F)(F)F)cc4)CC3)cc(C(C)(C)C)c2)c1 [B1K037-01, 4-[4-[3-tert-Butyl-5-(3-ethoxyphenyl)benzoyl]piperazin-1-yl]-N-(2,2,2-trifluoroethyl)benzamide]
ASMS ratio (%) n = 1 [1]: 0.8%
ASMS ratio (%) n = 2 [1]: 1.9%

Compound: CCOc1cccc(-c2ccc(CN3CCN(c4ccc(C(=O)N(C)CC56CC7CC(CC(C7)C5)C6)cc4)CC3)cc2C)c1 [B3A047-01, N-(1-Adamantylmethyl)-4-[4-[[4-(3-ethoxyphenyl)-3-methylphenyl]methyl]piperazin-1-yl]-N-methylbenzamide]
ASMS ratio (%) n = 1 [2]: 1.8%
ASMS ratio (%) n = 2 [2]: −5.9%

Compound: CCOc1cncc(-c2ccc(CN3CCN(c4ccc(C(=O)Nc5ccc(OC)cc5)nn4)CC3)c(CC)c2)c1 [B1O076-01, 6-[4-[[4-(5-Ethoxypyridin-3-yl)-2-ethylphenyl]methyl]piperazin-1-yl]-N-(4-methoxyphenyl)pyridazine-3-carboxamide]
ASMS ratio (%) n = 1 [2]: 4.4%
ASMS ratio (%) n = 2 [2]: 1.1%

Compound: CCOc1cccc(-c2ccc(C(C)N3CCN(c4ccc(C(=O)NCC56CC7CC(CC(C7)C5)C6)cc4)CC3)cc2)c1 (stereo not drawn) [B1A097-01, N-(1-Adamantylmethyl)-4-[4-[1-[4-(3-ethoxyphenyl)phenyl]ethyl]piperazin-1-yl]benzamide]
ASMS ratio (%) n = 1 [1]: 3.2%
ASMS ratio (%) n = 2 [1]: 2.5%

Compound: CCOc1cncc(-c2cc(CN3CCN(c4ccc(C(=O)NS(=O)(=O)c5ccc(NCCSc6ccccc6)c([N+](=O)[O-])c5)nn4)CC3)cc(OC(C)C)c2)c1 [B2Q084-01, 6-[4-[[3-(5-Ethoxypyridin-3-yl)-5-propan-2-yloxyphenyl]methyl]piperazin-1-yl]-N-[3-nitro-4-(2-phenylsulfanylethylamino)phenyl]sulfonylpyridazine-3-carboxamide]
ASMS ratio (%) n = 1 (AS-MS, mixture library, Bcl-2): 12.6%
ASMS ratio (%) n = 2 (AS-MS, mixture library, Bcl-2): −4.9%

Compound: 6-[4-[[4-(5-Ethoxypyridin-3-yl)naphthalen-1-yl]methyl]piperazin-1-yl]-N-propylpyridazine-3-carboxamide [B1M047-01]
ASMS ratio (%) n = 1 [1]: 1.1%
ASMS ratio (%) n = 2 [1]: 0.3%

Compound: CCOc1cccc(C#Cc2ccccc2CN2CCN(c3ccc(C(=O)N(CC)CC)cc3)CC2)c1 [B4J069-01, 4-[4-[[2-[2-(3-Ethoxyphenyl)ethynyl]phenyl]methyl]piperazin-1-yl]-N,N-diethylbenzamide]
ASMS ratio (%) n = 1 (AS-MS, mixture library, Bcl-2): 1.8%
ASMS ratio (%) n = 2 (AS-MS, mixture library, Bcl-2): −0.8%

Compound: CCOc1cncc(-c2csc(C(=O)N3CCN(c4ccc(C(=O)NS(=O)(=O)C(C)(C)C)nn4)CC3)c2)c1 [B2L002-01, N-tert-Butylsulfonyl-6-[4-[4-(5-ethoxypyridin-3-yl)thiophene-2-carbonyl]piperazin-1-yl]pyridazine-3-carboxamide]
ASMS ratio (%) (n = 1): 0.0%
ASMS ratio (%) (n = 2): 0.0%
